Columns and labels:
Type in all cases: in vivo, human
Triglycerides = experiment: Clinical trial: serum triglycerides of IHD patients under therapy; details: patient serum
Excerpt: (§1) A group of […] patients were selected for therapy to alter lipid metabolism relative to a control group of 20 ‘matched’patients who were not treated (Patient Control Group).
(§2) The therapy group comprised 23 male and 7 female patients with an average age of 55±1.1 years. The patient control group was comprised of 20 patients with IHD, of which 15 were male and 5 were female with an average age of 53±1.2 years. Each patient gave written consent for his/her participation in the trial.
(§3) All patients had angina of II-III class of Canadian Cardiological Society classification.
(§4) Apart from the degree of generalization or severity of atherosclerosis, all groups were matched not only in age, gender and risk factors but also in medication, nitrates, β-blockers, angiotensin-converting enzyme inhibitors etc.
(§5) Each therapy was administered for 8 weeks. The blood of the patients of all four groups was tested every two weeks.

Total cholesterol = experiment: Clinical trial: serum total cholesterol of IHD patients under therapy; details: patient serum; for cholesterol lowering effect (in words): therapy administered for 8 weeks
Excerpt: as §1, §2
(§6) All patients had angina of II-III class of Canadian Cardiological Society classification. […] IHD diagnosis for the other 15 patients with a recent history of unstable angina in the first group and 10 in the patient control group was confirmed by coronary angiography, which detected 70% or more of arterial stenosis.
as §4, §5

LDL cholesterol = experiment: Clinical trial: serum LDL-cholesterol (enzymatic and immunologic assays); details: patient serum
Excerpt: as §1, §2, §3, §4, §5
(§7) The level of LDL was estimated in two independent parameters: LDL-cholesterol measured by combination of enzymatic and immunologic assays, and Apo-B measured by immuno-turbometric assay. These assays were performed using commercially available kits which include goat anti-human apo-B polyclonals (LDL-Direct™, Randox Labs Ltd UK, EZ LDL™ Cat No-358-A, Sigma UK).

ApoB = experiment: Clinical trial: serum Apo-B (immuno-turbometric assay); details: patient serum
Excerpt: as §1, §2, §6, §4, §5, §7

ApoA = experiment: Clinical trial: serum ApoA of IHD patients under therapy; details: patient serum
Excerpt: as §1, §2, §3, §4, §5

## CC[C@H]1OC(=O)[C@H](C)[C@@H](O[C@H]2C[C@@](C)(OC)[C@@H](O)[C@H](C)O2)[C@H](C)[C@@H](O[C@@H]2O[C@H](C)C[C@H](N(C)C)[C@H]2O)[C@](C)(O)C[C@@H](C)CN(C)[C@H](C)[C@@H](O)[C@]1(C)O [Group A, azithromycin]
Triglycerides; 1 month after treatment
  Triglycerides: 106 mg/dL
  Triglycerides (% of before-treatment value): 91%
Triglycerides; 2 months after treatment
  Triglycerides: 118 mg/dL
  Triglycerides (% of before-treatment value): 101%
Triglycerides; 3 months after treatment
  Triglycerides: 109 mg/dL
  Triglycerides (% of before-treatment value): 93%
Triglycerides; Treatment 4 weeks
  Triglycerides: 112 mg/dL
  Triglycerides (% of before-treatment value): 96%
Triglycerides; Treatment 6 weeks
  Triglycerides: 101 mg/dL
  Triglycerides (% of before-treatment value): 86%
Triglycerides; Treatment 8 weeks
  Triglycerides: 99 mg/dL
  Triglycerides (% of before-treatment value): 85%
Total cholesterol; 1 month after treatment
  Total cholesterol: 197 mg/dL
  Total cholesterol (% of before-treatment value): 96%
Total cholesterol; 2 months after treatment
  Total cholesterol: 196 mg/dL
  Total cholesterol (% of before-treatment value): 96%
Total cholesterol; 3 months after treatment
  Total cholesterol: 198 mg/dL
  Total cholesterol (% of before-treatment value): 97%
Total cholesterol; Treatment 4 weeks
  Total cholesterol: 186 mg/dL
  Total cholesterol (% of before-treatment value): 91%
Total cholesterol; Treatment 6 weeks
  Total cholesterol: 190 mg/dL
  Total cholesterol (% of before-treatment value): 93%
Total cholesterol; Treatment 8 weeks
  Total cholesterol: 191 mg/dL
  Total cholesterol (% of before-treatment value): 93%
Total cholesterol
  cholesterol lowering effect (in words): no cholesterol lowering effect
LDL cholesterol; 1 month after treatment
  LDL cholesterol: 44 mg/dL
  LDL cholesterol (% of before-treatment value): 129%
LDL cholesterol; 2 months after treatment
  LDL cholesterol: 41 mg/dL
  LDL cholesterol (% of before-treatment value): 121%
LDL cholesterol; 3 months after treatment
  LDL cholesterol: 40 mg/dL
  LDL cholesterol (% of before-treatment value): 118%
LDL cholesterol; Treatment 4 weeks
  LDL cholesterol: 37 mg/dL
  LDL cholesterol (% of before-treatment value): 109%
LDL cholesterol; Treatment 6 weeks
  LDL cholesterol: 38 mg/dL
  LDL cholesterol (% of before-treatment value): 112%
LDL cholesterol; Treatment 8 weeks
  LDL cholesterol: 39 mg/dL
  LDL cholesterol (% of before-treatment value): 115%
ApoB; 1 month after treatment
  ApoB: 115 mg/dL
  ApoB (% of before-treatment value): 92%
ApoB; 2 months after treatment
  ApoB: 133 mg/dL
  ApoB (% of before-treatment value): 106%
ApoB; 3 months after treatment
  ApoB: 131 mg/dL
  ApoB (% of before-treatment value): 105%
ApoB; Treatment 4 weeks
  ApoB: 109 mg/dL
  ApoB (% of before-treatment value): 87%
ApoB; Treatment 6 weeks
  ApoB: 110 mg/dL
  ApoB (% of before-treatment value): 88%
ApoB; Treatment 8 weeks
  ApoB: 113 mg/dL
  ApoB (% of before-treatment value): 90%
ApoA; 1 month after treatment
  ApoA: 145 mg/dL
  ApoA (% of before-treatment value): 90%
ApoA; 2 months after treatment
  ApoA: 162 mg/dL
  ApoA (% of before-treatment value): 101%
ApoA; 3 months after treatment
  ApoA: 161 mg/dL
  ApoA (% of before-treatment value): 100%
ApoA; Treatment 4 weeks
  ApoA: 142 mg/dL
  ApoA (% of before-treatment value): 88%
ApoA; Treatment 6 weeks
  ApoA: 143 mg/dL
  ApoA (% of before-treatment value): 89%
ApoA; Treatment 8 weeks
  ApoA: 141 mg/dL
  ApoA (% of before-treatment value): 88%

## CC(=O)Oc1ccccc1C(=O)O [Group D, acetylsalicylic acid]
Triglycerides; 1 month after treatment
  Triglycerides: 146 mg/dL
  Triglycerides (% of before-treatment value): 126%
Triglycerides; 2 months after treatment
  Triglycerides: 128 mg/dL
Triglycerides; 3 months after treatment
  Triglycerides: 134 mg/dL
Triglycerides; Treatment 2 weeks
  Triglycerides: 152 mg/dL
  Triglycerides (% of before-treatment value): 131%
Triglycerides; Treatment 4 weeks
  Triglycerides: 111 mg/dL
  Triglycerides (% of before-treatment value): 96%
Total cholesterol; 1 month after treatment
  Total cholesterol: 221 mg/dL
  Total cholesterol (% of before-treatment value): 87%
Total cholesterol; 2 months after treatment
  Total cholesterol: 223 mg/dL
  Total cholesterol (% of before-treatment value): 88%
Total cholesterol; 3 months after treatment
  Total cholesterol: 234 mg/dL
  Total cholesterol (% of before-treatment value): 92%
Total cholesterol; Treatment 2 weeks
  Total cholesterol: 233 mg/dL
  Total cholesterol (% of before-treatment value): 92%
Total cholesterol; Treatment 4 weeks
  Total cholesterol: 210 mg/dL
  Total cholesterol (% of before-treatment value): 83%
Total cholesterol
  cholesterol lowering effect (in words): no cholesterol lowering effect
LDL cholesterol; 1 month after treatment
  LDL cholesterol: 44 mg/dL
LDL cholesterol; 2 months after treatment
  LDL cholesterol: 38 mg/dL
  LDL cholesterol (% of before-treatment value): 103%
LDL cholesterol; 3 months after treatment
  LDL cholesterol: 43 mg/dL
LDL cholesterol; Treatment 2 weeks
  LDL cholesterol: 41 mg/dL
LDL cholesterol; Treatment 4 weeks
  LDL cholesterol: 41 mg/dL
ApoB; 1 month after treatment
  ApoB: 131 mg/dL
  ApoB (% of before-treatment value): 106%
ApoB; 2 months after treatment
  ApoB: 142 mg/dL
  ApoB (% of before-treatment value): 114%
ApoB; 3 months after treatment
  ApoB: 111 mg/dL
  ApoB (% of before-treatment value): 90%
ApoB; Treatment 2 weeks
  ApoB: 137 mg/dL
  ApoB (% of before-treatment value): 110%
ApoB; Treatment 4 weeks
  ApoB: 113 mg/dL
  ApoB (% of before-treatment value): 91%
ApoA; 1 month after treatment
  ApoA: 184 mg/dL
ApoA; 2 months after treatment
  ApoA: 166 mg/dL
  ApoA (% of before-treatment value): 106%
ApoA; 3 months after treatment
  ApoA: 179 mg/dL
ApoA; Treatment 2 weeks
  ApoA: 157 mg/dL
  ApoA (% of before-treatment value): 99%
ApoA; Treatment 4 weeks
  ApoA: 151 mg/dL
  ApoA (% of before-treatment value): 96%
